Reference: patent US7030125B2, “Isothiazole and isoxazole compounds as transforming growth factor (TGF) inhibitors” (Pfizer, Inc., priority 2002, dated 2006)

Target: T1, ALK-5 (TβRI) (Homo sapiens, UniProt P36897)
T1 construct: using either the kinase domain of ALK5 with Smad3 as substrate; GST
T1 sequence (P36897 205-495 limits assumed): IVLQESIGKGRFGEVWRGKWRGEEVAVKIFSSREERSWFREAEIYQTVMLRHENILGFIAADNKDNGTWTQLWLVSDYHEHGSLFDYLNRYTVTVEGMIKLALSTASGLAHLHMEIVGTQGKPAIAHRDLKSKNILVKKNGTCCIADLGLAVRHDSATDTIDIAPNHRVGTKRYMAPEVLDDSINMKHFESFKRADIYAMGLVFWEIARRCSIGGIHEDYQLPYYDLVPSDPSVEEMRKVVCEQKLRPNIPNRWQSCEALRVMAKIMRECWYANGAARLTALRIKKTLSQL
Assay: ALK-5 (TβRI) Kinase Assay
Assay type: biochemical
Details: GST-ALK5 with GST-Smad3 as substrate; read-out: TβRIIC50 value
Procedure: The kinase assays were performed with 65 nM GST-ALK5 and 84 nM GST-Smad3 in 50 mM HEPES, 5 mM MgCl2, 1 mM CaCl2, 1 mM dithiothreitol, and 3_M ATP. Reactions were incubated with 0.5_Ci of [33 P]_ATP for 3 h at 30° C. Phosphorylated protein was captured on P-81 paper (Whatman, Maidstone, England), washed with 0.5% phosphoric acid, and counted by liquid scintillation. Alternatively, Smad3 or Smad1 protein was also coated onto FlashPlate Sterile Basic Microplates (PerkinElmer Life Sciences, Boston, Mass.). Kinase assays were then performed in Flash-Plates with same assay conditions using either the kinase domain of ALK5 with Smad3 as substrate or the kinase domain of ALK6 (BMP receptor) with Smad1 as substrate. Plates were washed three times with phosphate buffer and counted by TopCount (Packard Bio-science, Meriden, Conn.). (Laping, N.J. et al. Molecular Pharmacology 62:58–64 (2002)).

COc1ccc2nccc(-c3conc3-c3cccc(C)n3)c2c1 [Example 5, 6-Methoxy-4-[3-(6-methyl-pyridin-2-yl)-isoxazol-4-yl]-quinoline] gave an IC50 of about 118 nM.
